Assay results reported in the supplement of paper PMC10307832.

Columns and labels:
Assay in all cases: relative viability (nuclei count vs DMSO), 5 days (fraction); higher = more cells survive
[1] = compound: CC1=CC=C(C=C1)C(=O)CN2C3=C(CCCC3)SC2=N [Pifithrin_alpha] + Cc1nc(Nc2ncc(C(=O)Nc3c(C)cccc3Cl)s2)cc(N2CCN(CCO)CC2)n1 [Dasatinib] (partner 0.075 µM)
How it was run: (§1)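 After 5 days of treatment, lung cancer cells in 1536-well plates were fixed and stained in a single step (final 0.05% Triton X-100, 1% formaldehyde, 1 ug/ml Hoechst) and their nuclei counted on 4× images. Treatment had been applied by pin tool the day after seeding as one drug alone or as a fixed anchor-drug dose with five library-drug doses (not always all listed) in √10 steps. Relative viability is the nuclei count of treated wells divided by that of vehicle wells, and values are medians of duplicate plates.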

[2] = compound: CC1=CC=C(C=C1)C(=O)CN2C3=C(CCCC3)SC2=N [Pifithrin_alpha] + Nc1nc2[nH]cc(CCc3ccc(C(=O)N[C@@H](CCC(=O)O)C(=O)O)cc3)c2c(=O)[nH]1 [Pemetrexed] (partner 0.2 µM)
How it was run: as §1

[3] = compound: CC1=CC=C(C=C1)C(=O)CN2C3=C(CCCC3)SC2=N [Pifithrin_alpha] + CC(=O)Nc1cccc(-n2c(=O)n(C3CC3)c(=O)c3c(Nc4ccc(I)cc4F)n(C)c(=O)c(C)c32)c1 [Trametinib] (partner 0.02 µM)
How it was run: as §1

[4] = compound: Nc1nc(Nc2ccc3c(c2)CC[C@@H](N2CCCC2)CC3)nn1-c1cc2c(nn1)-c1ccccc1CCC2 [Bemcentinib] + Nc1ncn([C@H]2C[C@H](O)[C@@H](CO)O2)c(=O)n1 [Decitabine] (partner 2 µM)
How it was run: as §1

NCI-H650
relative viability ([1]; first compound 3.162 µM): 0.489
relative viability ([1]; first compound 10 µM): 0.441
relative viability ([1]; first compound 31.62 µM): 0.415
relative viability ([1]; first compound 100 µM): 0.388
relative viability ([2]; first compound 3.162 µM): 0.938
relative viability ([2]; first compound 10 µM): 0.967
relative viability ([2]; first compound 31.62 µM): 0.831
relative viability ([2]; first compound 100 µM): 0.789
relative viability ([3]; first compound 3.162 µM): 0.947
relative viability ([3]; first compound 10 µM): 0.978
relative viability ([3]; first compound 31.62 µM): 0.785
relative viability ([3]; first compound 100 µM): 0.985
relative viability ([4]; first compound 0.04 µM): 0.269
relative viability ([4]; first compound 0.1265 µM): 0.301
relative viability ([4]; first compound 0.4 µM): 0.282
relative viability ([4]; first compound 1.265 µM): 0.294
relative viability ([4]; first compound 4 µM): 0.347
